Assays:
Test in all cases: relative viability vs DMSO control (72 h) (fraction); higher = more viable cells
SW684 = test system: SW684
Outline: (§1)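 Sarcoma cell lines were seeded in 384-well plates at densities chosen for 80–90% confluence, then 24 h later given 2.5 µl of serially diluted compound drawn from source plates spanning 10 mM to 0.0002 mM. They were held 72 h at 37 °C, 5% CO2, with 0.1% DMSO vehicle and a 5 µM positive control included. Relative viability was read with ATPLite as percent growth and averaged over up to triplicate wells. Rescaling placed full at 1 and none at 0.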

A204 = test system: A204
Outline: as §1

SK-ES-1 = test system: SK-ES-1
Outline: as §1

G401 = test system: G401
Outline: as §1

SK-LMS-1 = test system: SK-LMS-1
Outline: as §1

HS729 = test system: HS729
Outline: as §1

SW872 = test system: SW872
Outline: as §1

MES-SA = test system: MES-SA
Outline: as §1

SYO-1 = test system: SYO-1
Outline: as §1

SW1353 = test system: SW1353
Outline: as §1

SW982 = test system: SW982
Outline: as §1

KHOS-240S = test system: KHOS-240S
Outline: as §1

O=C(Nc1ccc(OC(F)(F)Cl)cc1)c1cnc(N2CC[C@@H](O)C2)c(-c2cc[nH]n2)c1 [Asciminib]
Settings	relative viability
A204, 0.00017 µM	1.02
A204, 0.00051 µM	1.04
A204, 0.00152 µM	1.05
A204, 0.00457 µM	1.04
A204, 0.01372 µM	1.04
A204, 0.04115 µM	1.05
A204, 0.1235 µM	1.06
A204, 0.3704 µM	1.06
A204, 1.111 µM	1.04
A204, 3.333 µM	0.799
A204, 10 µM	0.449
G401, 0.00017 µM	0.949
G401, 0.00051 µM	0.921
G401, 0.00152 µM	0.928
G401, 0.00457 µM	0.967
G401, 0.01372 µM	0.961
G401, 0.04115 µM	0.981
G401, 0.1235 µM	0.981
G401, 0.3704 µM	0.99
G401, 1.111 µM	0.9822
G401, 3.333 µM	0.909
G401, 10 µM	0.831
HS729, 0.00017 µM	0.939
HS729, 0.00051 µM	0.932
HS729, 0.00152 µM	0.93
HS729, 0.00457 µM	0.915
HS729, 0.01372 µM	0.916
HS729, 0.04115 µM	0.893
HS729, 0.1235 µM	0.928
HS729, 0.3704 µM	0.901
HS729, 1.111 µM	0.903
HS729, 3.333 µM	0.954
HS729, 10 µM	0.829
KHOS-240S, 0.00017 µM	1.04
KHOS-240S, 0.00051 µM	1.01
KHOS-240S, 0.00152 µM	1.02
KHOS-240S, 0.00457 µM	1.02
KHOS-240S, 0.01372 µM	1.03
KHOS-240S, 0.04115 µM	1.009
KHOS-240S, 0.1235 µM	0.9965
KHOS-240S, 0.3704 µM	1.04
KHOS-240S, 1.111 µM	1.03
KHOS-240S, 3.333 µM	0.977
KHOS-240S, 10 µM	0.632
MES-SA, 0.00017 µM	0.88
MES-SA, 0.00051 µM	0.902
MES-SA, 0.00152 µM	0.864
MES-SA, 0.00457 µM	0.898
MES-SA, 0.01372 µM	0.9132
MES-SA, 0.04115 µM	0.9229
MES-SA, 0.1235 µM	0.914
MES-SA, 0.3704 µM	0.951
MES-SA, 1.111 µM	0.908
MES-SA, 3.333 µM	0.829
MES-SA, 10 µM	0.577
SK-ES-1, 0.00017 µM	0.975
SK-ES-1, 0.00051 µM	0.999
SK-ES-1, 0.00152 µM	1
SK-ES-1, 0.00457 µM	1
SK-ES-1, 0.01372 µM	0.992
SK-ES-1, 0.04115 µM	1.01
SK-ES-1, 0.1235 µM	1.01
SK-ES-1, 0.3704 µM	1.02
SK-ES-1, 1.111 µM	0.995
SK-ES-1, 3.333 µM	0.906
SK-ES-1, 10 µM	0.814
SK-LMS-1, 0.00017 µM	0.928
SK-LMS-1, 0.00051 µM	0.955
SK-LMS-1, 0.00152 µM	0.972
SK-LMS-1, 0.00457 µM	0.97
SK-LMS-1, 0.01372 µM	1.06
SK-LMS-1, 0.04115 µM	1.02
SK-LMS-1, 0.1235 µM	1
SK-LMS-1, 0.3704 µM	1.05
SK-LMS-1, 1.111 µM	1.04
SK-LMS-1, 3.333 µM	0.773
SK-LMS-1, 10 µM	0.565
SW684, 0.00017 µM	1.09
SW684, 0.00051 µM	1.06
SW684, 0.00152 µM	1.09
SW684, 0.00457 µM	1.09
SW684, 0.01372 µM	1.08
SW684, 0.04115 µM	1.102
SW684, 0.1235 µM	1.16
SW684, 0.3704 µM	1.23
SW684, 1.111 µM	1.18
SW684, 3.333 µM	1.11
SW684, 10 µM	0.627
SW872, 0.00017 µM	0.966
SW872, 0.00051 µM	0.94
SW872, 0.00152 µM	0.939
SW872, 0.00457 µM	0.938
SW872, 0.01372 µM	0.937
SW872, 0.04115 µM	0.978
SW872, 0.1235 µM	0.9486
SW872, 0.3704 µM	1.01
SW872, 1.111 µM	0.991
SW872, 3.333 µM	0.974
SW872, 10 µM	0.93
SW982, 0.00017 µM	0.974
SW982, 0.00051 µM	0.978
SW982, 0.00152 µM	1
SW982, 0.00457 µM	0.975
SW982, 0.01372 µM	1.01
SW982, 0.04115 µM	1.01
SW982, 0.1235 µM	1.01
SW982, 0.3704 µM	1.04
SW982, 1.111 µM	1.05
SW982, 3.333 µM	1.01
SW982, 10 µM	0.858
SW1353, 0.00017 µM	0.946
SW1353, 0.00051 µM	0.958
SW1353, 0.00152 µM	0.936
SW1353, 0.00457 µM	0.9604
SW1353, 0.01372 µM	1.04
SW1353, 0.04115 µM	1.1
SW1353, 0.1235 µM	1.1
SW1353, 0.3704 µM	1.14
SW1353, 1.111 µM	1.11
SW1353, 3.333 µM	1.06
SW1353, 10 µM	0.953
SYO-1, 0.00017 µM	0.92
SYO-1, 0.00051 µM	0.91
SYO-1, 0.00152 µM	0.919
SYO-1, 0.00457 µM	0.927
SYO-1, 0.01372 µM	0.904
SYO-1, 0.04115 µM	0.893
SYO-1, 0.1235 µM	0.866
SYO-1, 0.3704 µM	0.844
SYO-1, 1.111 µM	0.813
SYO-1, 3.333 µM	0.76
SYO-1, 10 µM	0.6731

Reference: the supplement of paper PMC10883282
